Assay results from a melting point compilation (Tetko et al.; mined from patent text by program, amines drawn as free bases though some values may be those of a salt).

SMILES | melting point
Cc1ccc(NCc2ccc(N(C)C)cc2)cc1C | 73 to 75 °C
CCCCCCCCc1cnc(-c2ccc(OC)c(F)c2)nc1 | 58.7 to 59 °C
CNCc1ccc([C@H]2CC[C@@H](N(C)C(=O)c3ccc(Cl)cc3)CC2)cc1 | 110 to 112 °C
CCCCCC(=O)n1nc(-c2cc(C(C)(C)C)c(O)c(C(C)(C)C)c2)c2cccnc21 | 112 to 114 °C
C=CCn1c2c(c3cc(OCCN(C)C)ccc31)C(=O)c1cc(OC)c(OC)cc1-2 | 138 °C
CCCCCCCCCCCCC(C)(CS(=O)(=O)O)C(=O)O (stereo not drawn) | 84 to 85 °C
CCc1c(CCNC(=O)CCCCC(=O)O)ccc(OC)c1OC | 92 to 94 °C
CCOC(=O)C1=C(C)N(C(C)=O)C(c2csc(C)n2)=NC1c1ccc(OC)cc1 (stereo not drawn) | 138 to 140 °C
COc1ccc(N2CCN(c3c(C)c(C)c4c(c3C)C(O)(C(C)(C)C)C(C)(C)O4)CC2)cc1 (stereo not drawn) | 113 to 115 °C
CS(=O)(=O)c1ccc(Oc2cc(OCc3ccccc3)c3[nH]c(C4=NCC(CC(N)=O)S4)cc3c2)cc1 (stereo not drawn) | 134 to 135 °C
COc1ccc2c(c1)CCC1C2CCC2(C)C(NCCCCCCCCCCN)CCC12 (stereo not drawn) | 55.5 to 57.5 °C
CCC(O)(CC)c1ccc(-c2cccc(OCc3ccc(CO)c(CO)c3)c2)cc1C | 76 °C
O=C(Nc1nc(C(F)(F)C(F)(F)F)c(CO)s1)c1cc(C(F)(F)F)cc(C(F)(F)F)c1 | 164 to 165 °C
COc1ccc(C(F)(F)F)cc1NC(=N)Nc1cccc(C(F)(F)F)c1 | 45 to 47 °C
CCCc1c(O)ccc2c1OC(C(=O)OC)CC2 (stereo not drawn) | 51 to 53 °C
COc1ccc2c(c1)C(=O)N(c1ccc3[nH]c(=O)ccc3c1)C2 | 305 to 310 °C
CCCc1c(OCC(O)COc2cccc(N)c2)ccc(C(C)=O)c1O (stereo not drawn) | 85 to 89 °C
CCn1cc(C(=O)O)c(=O)c2cc(F)c(N3CCC(NCC(C)=O)C3)nc21 (stereo not drawn) | 287 to 289 °C
COCCOCCN1C(=O)C2(COc3cc4c(cc32)OCCO4)c2cc3c(cc21)OCCO3 (stereo not drawn) | 146 to 148 °C
Cn1c(C#N)ccc1-c1ccc2c(c1)C(C)(c1cccs1)OCC(=O)N2 (stereo not drawn) | 197 to 198 °C
N#Cc1cc2cccc(NS(=O)(=O)c3cccs3)c2[nH]1 | 283 to 284 °C
CC(=O)Nc1ccc(S(=O)(=O)Nc2nnc(CC(=O)O)s2)cc1 | 206 to 207 °C

SMILES | melting point
CC(C)(C)c1cc(SC2(Sc3cc(C(C)(C)C)c(O)c(C(C)(C)C)c3)CCCC2)cc(C(C)(C)C)c1O | 138 to 143 °C
CC(O)(CCSc1cc(C(C)(C)C)c(O)c(C(C)(C)C)c1)CC(=O)CCSc1cc(C(C)(C)C)c(O)c(C(C)(C)C)c1 (stereo not drawn) | 108 to 110 °C
CCCN(CCC)C(=O)n1cnc(S(C)(=O)=O)n1 | 94 °C
CCCCc1nc(C(C)O)c(C(=O)O)n1Cc1ccc(-c2ccccc2-c2nnn[nH]2)cc1 (stereo not drawn) | 214 to 217 °C
Cc1ccc(CC2CCN(C(=O)CNc3ccc(NS(C)(=O)=O)cc3)CC2)cc1 | 133 to 135 °C
COc1cc2c(cc1C(=O)O)nnn2C(C)=O | 208 to 212 °C
CCCc1nc(NCCOC(C)=O)nc(N2CCOCC2)n1 | 94 to 95 °C
CCCCC(NC(=O)OCc1ccccc1)P(C)(=O)O (stereo not drawn) | 134 to 135 °C
c1cncc(-c2nncs2)c1 | 78 to 79 °C
O=P1(c2cccc(C(F)(F)F)c2)c2ccccc2CN1c1ccccc1 (stereo not drawn) | 48 to 51 °C
Clc1ccc(C2(CBr)OCC(c3ccccc3)O2)cc1 (stereo not drawn) | 60 °C
COC(=O)C(C)(C)CCCOc1c(C)cc(OC(=O)C(C)(C)C)c(C)c1C | 46 to 47 °C
CCCCNc1nc(N2CC3CCC(CC3)C2)nc(N2CC3CCC(CC3)C2)n1 | 101 to 103 °C
O=C(O)C1CCN1C(c1ccccc1)c1ccccc1 (stereo not drawn) | 132 to 137 °C
C[C@@H](n1cc(-c2ccccc2)nn1)[C@](O)(Cn1cncn1)c1ccc(F)cc1F | 148 to 149 °C
CCCCCCCCOc1ccc(-c2ccc(C(C)OC(=O)CCC)cc2)cc1 (single isomer, unassigned; (+)) | 56.9 °C
COCCOc1ccc(OCC(O)CNCCOc2ccc(OC)cc2)c(C#N)c1 (stereo not drawn) | 95 to 97 °C
CCCCCCCCOC(=O)COc1cc(F)ccc1C(=S)NCc1cccc([N+](=O)[O-])c1 | 69 to 72 °C
COc1cc2c3ccc(OC)c(OC)c3n(Cc3ccccc3)c2cc1OC | 174 to 175 °C
CCOC(=O)Cc1cn2cc(Br)nc(NC)c2n1 | 104 °C
CN(C)C(=O)Nc1cccc(S(N)(=O)=O)c1 | 193 to 194 °C
CCc1c(C(=O)OC)[nH]c(=O)c(CC(C)C)[n+]1[O-] | 143 to 146 °C

SMILES | melting point
CC1CC(CN2CCNC2=N[N+](=O)[O-])CO1 (stereo not drawn) | 109 to 110 °C
COc1ncnc(-c2cc([N+](=O)[O-])c(C#N)cc2F)c1Cl | 161 to 162 °C
CN(C)C1(c2cccc(F)c2)CCC(c2[nH]c3ccccc3c2CCc2ccncc2)CC1 (stereo not drawn) | 301 to 314 °C
COCc1nc(N2CCCCC2)ncc1C(=O)OC | 89 to 92 °C
COc1cc(C(C)C)c(Oc2cnc(N)nc2N)cc1C#CC1CC1 | 226 to 227 °C
CCOP(=O)(Cc1cccc(CN2C(=O)c3ccccc3C2=O)c1)OCC | 100 to 101 °C
Cn1ncc(C(=O)O)c1C(=O)Nc1ccn2nc(-c3ccccc3)nc2c1 | > 300 °C
O=c1[nH]c2cc(Cl)ccc2c(O)c1-c1cccc(C#Cc2ccccc2)c1 | 297 to 300 °C
COc1cccc(NC(=O)NC2N=C(c3ccccc3F)c3cccc(C)c3N(CC(=O)N3CC4CCC(CC4)C3)C2=O)c1 (stereo not drawn) | 241 to 243 °C
CC(=NNc1ccc(-c2c[nH]c(=O)cn2)cc1)c1ccncc1 | 175 to 179 °C
NCC1Cc2cc(F)cc(-c3ccncc3)c2O1 (stereo not drawn) | 170 to 171 °C
c1ccc(-c2ccnc(Nc3cccc(-n4ccnc4)c3)n2)nc1 | 210 to 211 °C
CCOCn1cc(F)c(=O)n(C(=O)c2cccc(C(=O)Oc3nc(OC(=O)c4ccc(Cl)cc4)ccc3C#N)c2)c1=O | 156 to 158 °C
COc1ccc(-n2c(=O)[nH]c3c(C(N)=O)nc(-c4cccc(O)c4)nc32)c(C)c1 | 355 to 357 °C
C#CCC#CCC#CCOc1ccc(C)cc1 | 34.5 to 35.5 °C
Cc1cc(-c2cccc(C(F)(F)F)c2)n2ccnc2n1 | 170 to 172 °C
CC(C)C(=O)N[C@@H](CSC(=O)C(C)C)C(=O)NCCSC(=O)C(C)C | 94 to 96 °C
COc1ccc(C(=O)NCCOc2ccc(CC(Oc3ccccc3)C(=O)O)cc2)cn1 (stereo not drawn) | 145 to 146 °C
Cc1oc(-c2ccco2)nc1COc1ccc(COc2nn(-c3ccccc3)cc2CO)cc1 | 113 to 114 °C
Cc1ccccc1C(C#N)=C1C=CC(=NOP(=O)(c2ccccc2)c2ccccc2)S1 | 165 to 167 °C
Cc1oc(-c2ccc(Cl)cc2)cc1C(=O)N[C@H](C)[C@](O)(Cn1cncn1)c1ccc(F)cc1F | 189 to 190 °C

More lines, now with the values ahead:

melting point | SMILES
170 °C | O=C1C2=NCCCN2c2cccc(Cl)c21
257 to 258 °C | Cn1cncc1CCNC(=O)c1[nH]c2ccc(Cl)cc2c1S(=O)(=O)c1ccccc1
213 to 220 °C | Cn1nnnc1-n1cc(C(=O)O)c(=O)c2cc(F)c(Cl)nc21
121 °C | O=C(c1ncc[nH]1)C1CCN(Cc2ccccc2)CC1
132 °C | Cc1noc(NS(=O)(=O)c2ccc(-c3ccccc3)s2)c1Br
157 to 159 °C | CCC(C)c1ccc(NS(=O)(=O)c2ccc(N3CCNC3=O)cc2)cc1 (stereo not drawn)
83 to 84 °C | O=S(=O)(On1nnc2ccccc21)c1ccccc1
168 to 170 °C | Cc1cccc(CN(CCC(=O)O)c2nc(N)nc(Cl)n2)c1
175 to 178 °C | COC(=O)C=Cc1cccc2c3c(n(C)c12)CCN(Cc1nc[nH]c1C)C3=O
310 to 313 °C | Cc1c2c(c(-c3ccc4c(c3)OCO4)c3c4c(ccc13)OCO4)C(=O)NC2=O
106 to 108 °C | Cc1ccc(C(=O)NCCc2ccccc2Cl)cc1
159 to 161 °C | N#CCC1OC(n2cnc3c(NN4CCC(Sc5ccccc5)CC4)nc(Cl)nc32)C(O)C1O (stereo not drawn)
170 to 171 °C | CC(=O)Oc1coc(-c2cccc([N+](=O)[O-])c2)cc1=O
58 to 60 °C | CCCN(CCC)S(=O)(=O)c1cccc(C2(O)CCC(=O)N2C)c1 (stereo not drawn)
100 to 102 °C | O=C1CC(CO)N1c1ccccc1 (stereo not drawn)
> 320 °C | O=C(CN1CCCC1=O)Nc1ccc(-c2ncc(C(=O)O)c(O)n2)cc1
110 to 112 °C | O=C(NCCSCc1ccccc1Cl)c1c(Cl)cccc1Cl

melting point | SMILES
130 to 132 °C | O=C(NC1CCN(Cc2ccccc2)C1)C12CC3CC(CC(C3)C1)C2 (stereo not drawn)
275 to 277 °C | COc1cc(OC)c2c(=O)[nH]c(-c3ccc(OC4CCN(C(C)=O)CC4)cc3)nc2c1
67.9 °C | COC(=O)C(Cc1ccc(Cl)cc1Cl)c1ccccc1Cl (stereo not drawn)
134 to 136 °C | Clc1ccc(C2OC3(CCN(Cc4ccccc4)CC3)N3CCCCC23)cc1 (stereo not drawn)
132 °C | Nc1cc(Cl)c(Br)c(Cl)c1
150 °C | O=C1OCCN1c1ccc(NCC(O)CO)c([N+](=O)[O-])c1 (stereo not drawn)
210 to 211 °C | CCOCc1nc2c(N)nc3cccnc3c2n1CC(C)(C)NC(=O)C1CCCCC1
158 to 160 °C | Nc1cccc(C(CC2CCCC2)C(=O)Nc2nccs2)c1 (stereo not drawn)
187 to 189 °C | Cc1cc([N+](=O)[O-])ccc1S(=O)(=O)n1c(Br)nc(Br)c1C
209 to 210 °C | CCc1nc2c(c(=O)n(C)c(=O)n2-c2ccc(Cl)cc2Cl)n1Cc1ccc(OC)cc1
220 to 222 °C | CN1C(=O)C(C(=O)Nc2ccc(Cl)c(C(F)(F)F)c2)S(=O)(=O)c2ccc(Cl)cc21 (stereo not drawn)
282 to 284 °C | O=S1(=O)N=C(NC2CCCCC2)Nc2cc(Cl)sc21
144 to 145 °C | CCCN(C)S(=O)(=O)c1cc(-n2c(=O)cc(C(F)(F)F)n(C)c2=O)ccc1Cl
277 to 279 °C | Cc1c(O)c(=O)[nH]c2cc(Cl)ccc2c1=O
256 °C | O=C1c2ccccc2C(=O)c2sc(-c3cccnc3)nc21
235 to 237 °C | O=C1CCC(N2Cc3c(OCc4ccccn4)cccc3C2=O)C(=O)N1 (stereo not drawn)
